Measured values: patent US20200368315A1, “ANTIMICROBIAL PEPTIDES AND ADMIXTURES THEREOF SHOWING ANTIMICROBIAL ACTIVITY AGAINST GRAM-NEGATIVE PATHOGENS” (priority 2017, published 2020)
Converted amounts (≈) assume the structure as drawn. “And” between values parts separate entries of the source, which are not always exact repeats. Equal values may be shown once. Read-outs that look alike come from different tables or passages of the source.

Tests used:
E. coli LMG15862 [1] = test: microbe, parasite or virus in culture; format: cell-based, Escherichia coli
Experimental: (§1) Escherichia coli, Klebsiella pneumoniae, Pseudomonas aeruginosa, Acinetobacter baumannii, Enterobacter aerogenes were grown in Luria-Bertani (LB) broth shaken (200 rpm) or on LB agar at 37° C. […] MICs tests were performed in duplicate by a liquid growth inhibition microdilution assays in sterilized polypropylene microtiter plates according to Wiegand and […] [27]. […] The suspension was diluted in a ratio of 1:100 using Mueller Hinton Broth (MHB) and the final inoculum is 5*10^5 CFU/mL. […] The antimicrobials were diluted serially by 1/2 one by one and 50 uL diluted bacterial suspension were added to each well to make the final volume to be 100 uL. Growth control was accomplished by remove 10 uL from well 11 and dilute 1000 times to plate 1/10 suspension on the solid medium. […] The number of colonies on the control agar plate should be around 50 to ensure the concentration of the inoculum and the effectiveness of the experiment. The lowest concentration of the antimicrobials that inhibits visible growth of the indicator is identified as MIC.

K. pneumoniae LMG20218 [2] = test: microbe, parasite or virus in culture; format: cell-based, Klebsiella pneumoniae; conditions: LMG20218
Experimental: as §1

P. aeruginosa LMG 6395 [3] = test: microbe, parasite or virus in culture; format: cell-based, Pseudomonas aeruginosa; conditions: LMG 6395
Experimental: as §1

A. baumannii LMG01041 [4] = test: microbe, parasite or virus in culture; format: cell-based, Acinetobacter baumannii; conditions: LMG01041
Experimental: as §1

E. aerogenes LMG 02094 [5] = test: microbe, parasite or virus in culture; format: cell-based, Enterobacter aerogenes; conditions: LMG 02094
Experimental: as §1

E. coli LMG15862 [6] = format: cell-based, Escherichia coli
Excerpt: (§2) The test of synergistic effect was processed by conducting standard chequerboard broth microdilution assays. Nisin (Drug X) was loaded two fold serially diluted from row 1 to 10 in X-axis while GNPs (Drug Y) were loaded in eight two fold serially diluted concentrations from line A to H in Y-axis (FIG. 1). The original concentrations of peptides were MICs of each. Row 11 are used as growth control with no peptide was included, while row 12 with MHB medium-only wells was included as a sterility control as referred before. 50 uL fresh bacterial suspension was added to well 1-11 and final volume of each well on the plate is 100 uL.
(§3) To determine whether the combination therapy is additive, synergistic or antagonistic, fractional inhibitory concentration (FIC) indices were calculated. FICI=FICa+FICb=MICac/MICa+MICbc/MICb. The MICa/MICb is the MIC of compound A/B alone. MICac is the MIC of compound A in combination with compound B and MICbc is the MIC of compound B when it was combination with compound A. […]. FICa is FIC of compound A while FICb is FIC of compound B. The FICI is interpreted as follows: synergistic, FICI≤0.5; additive, 0.5<FICI<1; indifferent, 1<FICI<2; antagonistic, FICI>2.

K. pneumoniae LMG20218 [7] = format: cell-based, Klebsiella pneumoniae
Excerpt: as §2, §3

P. aeruginosa LMG 6395 [8] = format: cell-based, Pseudomonas aeruginosa
Excerpt: as §2, §3

A. baumannii LMG01041 [9] = format: cell-based, Acinetobacter baumannii
Excerpt: as §2, §3

E. aerogenes LMG 02094 [10] = format: cell-based, Enterobacter aerogenes
Excerpt: as §2, §3

A. baumannii LMG01041 [11] = conditions: MIC of GNP alone
Experimental: (§4) The test of synergistic effect was processed by conducting standard chequerboard broth microdilution assays. […] Row 11 are used as growth control with no peptide was included, while row 12 with MHB medium-only wells was included as a sterility control as referred before. 50 uL fresh bacterial suspension was added to well 1-11 and final volume of each well on the plate is 100 uL.
(§5) The test of synergistic effect was processed as method 1.4.
as §3

E. aerogenes LMG 02094 [12] = test system: E. aerogenes LMG 02094
Experimental: as §4, §5, §3

E. coli LMG15862 [13] = test system: E. coli LMG15862
Experimental: as §4, §5, §3

K. pneumoniae LMG20218 [14] = test system: K. pneumoniae LMG20218
Experimental: as §4, §5, §3

P. aeruginosa LMG 6395 [15] = test system: P. aeruginosa LMG 6395
Experimental: as §4, §5, §3

L. lactis MG1363 = conditions: MG1363
[16] = MIC of GNP when used with the MICac concentration of nisin
[17] = MIC of nisin in combination with the GNP at the MICbc concentration
[18] = MIC of GNP in combination with vancomycin at the MICac concentration
[19] = MIC of vancomycin in combination with the GNP at the MICbc concentration

With `CC[C@H](C)[C@H](NC(=O)[C@H](CCCNC(=N)N)NC(=O)[C@H](CCC(N)=O)NC(=O)[C@@H](NC(=O)[C@@H](NC(=O)[C@@H](N)CCCNC(=N)N)[C@@H](C)CC)C(C)C)C(=O)N[C@@H](CCCCN)C(=O)N[C@@H](CCCCN)C(=O)N[C@@H](Cc1c[nH]c2ccccc12)C(=O)N[C@@H](CC(C)C)C(=O)N[C@@H](CCCNC(=N)N)C(N)=O` [GNP-8] the “MICb (GNP concentration when used alone)” value (E. coli LMG15862 [1]; L-form GNP, E. coli LMG15862, Table 6) was 12 µM, the MIC value (E. coli LMG15862 [1]; LMG15862) was 12 µM (≈ 17.9 µg/mL) and the MIC value (K. pneumoniae LMG20218 [2]) was 32 µM (≈ 47.8 µg/mL). The “MICb (MIC of GNP alone)” value (K. pneumoniae LMG20218 [2]) was 32 µM, the MIC value (P. aeruginosa LMG 6395 [3]) was 16 µM (≈ 23.9 µg/mL) and the “MICb (MIC of GNP alone)” value (P. aeruginosa LMG 6395 [3]) was 16 µM. The MIC value (A. baumannii LMG01041 [4]) was over 64 µM, the “MICb (MIC of GNP alone)” value (A. baumannii LMG01041 [4]) was over 64 µM and the MIC value (E. aerogenes LMG 02094 [5]) was 128 µM (≈ 191 µg/mL). The “MICb (MIC of GNP alone)” value (E. aerogenes LMG 02094 [5]) was 128 µM, the MICb (E. coli LMG15862 [6]; MIC of GNP alone) was 12 µM and the MICbc (E. coli LMG15862 [6]; [16]) was 1.5 µM. For the same molecule, the MICac (E. coli LMG15862 [6]; [17]) was 1.5 µM, the MICb (K. pneumoniae LMG20218 [7]; MIC of GNP alone) was 32 µM and the MICbc (K. pneumoniae LMG20218 [7]; [16]) was 1 µM. The MICac (K. pneumoniae LMG20218 [7]; [17]) was 0.75 µM, the MICb (P. aeruginosa LMG 6395 [8]; MIC of GNP alone) was 16 µM and the MICbc (P. aeruginosa LMG 6395 [8]; [16]) was 0.5 µM. It also gave an MICac (P. aeruginosa LMG 6395 [8]; [17]) of 4.5 µM, an MICb (A. baumannii LMG01041 [9]; MIC of GNP alone) of over 64 µM and an MICbc (A. baumannii LMG01041 [9]; [16]) of 4 µM. For the same molecule, the MICac (A. baumannii LMG01041 [9]; [17]) was 0.19 µM, the MICb (E. aerogenes LMG 02094 [10]; MIC of GNP alone) was 128 µM and the MICbc (E. aerogenes LMG 02094 [10]; [16]) was 1 µM. For the same molecule, the MICac (E. aerogenes LMG 02094 [10]; [17]) was 4 µM, the MICb (A. baumannii LMG01041 [11]) was over 64 µM and the MICb (E. aerogenes LMG 02094 [12]; MIC of GNP alone) was 128 µM. For the same molecule, the MICbc (E. aerogenes LMG 02094 [12]; [18]) was 8 µM and 16 µM, the MICac (E. aerogenes LMG 02094 [12]; [19]) was 12 µM and 6 µM and the MICb (E. coli LMG15862 [13]; MIC of GNP alone) was 12 µM. The MICbc (E. coli LMG15862 [13]; [18]) was 1.5 µM and 0.75 µM, the MICac (E. coli LMG15862 [13]; [19]) was 4 µM and 8 µM and the MICb (K. pneumoniae LMG20218 [14]; MIC of GNP alone) was 32 µM. The MICbc (K. pneumoniae LMG20218 [14]; [18]) was 2 µM and 1 µM, the MICac (K. pneumoniae LMG20218 [14]; [19]) was 4 µM and 8 µM and the MICb (P. aeruginosa LMG 6395 [15]; MIC of GNP alone) was 16 µM. The MICbc (P. aeruginosa LMG 6395 [15]; [18]) was 2 µM and 1 µM, the MICac (P. aeruginosa LMG 6395 [15]; [19]) was 8 µM and 16 µM and the “MIC value of antimicrobial compounds alone” value (L. lactis MG1363) was 24 µM.
